Assay results as given in US20240343710A1, “HETEROCYCLIC COMPOUNDS AND METHODS OF USE THEREOF” (1cBio, Inc., priority 2023, published 2024).
pIC50: −log10 of the molar value. Where a name gives a salt, the structure may show the parent alone. Read-outs that look alike come from different tables or passages of the source.

Columns and labels:
recombinant human PARP2 = recombinant human PARP2 (Homo sapiens, UniProt Q9UGN5); assay: PARP2 fluorescence polarization binding assay; conditions: read-out: PARP2 % inh at 10 μM
recombinant human PARP1 = recombinant human PARP1 (Homo sapiens, UniProt P09874); assay: PARP1 fluorescence polarization binding assay; conditions: GST-tagged PARP1 20 nM, PARP1-FL probe 3 nM
Experimental: In some embodiments, the biological assay is described in the Examples herein. In some embodiments, the biological assay measures PARP-1 binding by way of fluorescence polarization measurements. In some embodiments, binding of a test compound to recombinant human PARP-1 reduces the amount of binding of a fluorescent probe, and consequently reduces the detected level of fluorescence polarization. In some test compound stock solutions are prepared in a solvent, e.g., DMSO, and are serially diluted into a range of concentrations, e.g., 15 concentrations, 14 concentrations, 13 concentrations, 12 concentrations, 11 concentrations, 10 concentrations, 9 concentrations, 8 concentrations, 7 concentrations, 6 concentrations, or 5 concentrations, by a dilution factor, e.g., a 10-fold dilution factor, a 9-fold dilution factor, an 8-fold dilution factor, a 7-fold dilution factor, a 6-fold dilution factor, a 5-fold dilution factor, a 4-fold dilution factor, a 3-fold dilution factor, or a 2-fold dilution factor. In some embodiments, the serial dilutions, e.g., 100 nL of serial dilution, 90 nL of serial dilution, 80 nL of serial dilution, 70 nL of serial dilution, 60 nL of serial dilution, 50 nL of serial dilution, 30 nL of serial dilution, 20 nL of serial dilution, or 10 nL of serial dilution, are added to a multi-welled plate, e.g., a 1536-well plate, a 384-well plate, or a 96-well plate. In some embodiments, PARP-1, e.g., GST-tagged PARP-1, is diluted in assay buffer, e.g., 50 μL of assay buffer, 40 μL of assay buffer, e.g., 30 μL of assay buffer, 20 μL of assay buffer, 10 μL of assay buffer, or 5 μL of assay buffer, and is added to the plate. In some embodiments, the plate is centrifuged, e.g., at 1000 rpm for 1 min, and incubated, e.g., incubated for 30 minutes at room temperature (RT). In some embodiments, a fluorescent probe, e.g., 10 μL of 6 nM PARP1-FL (TOCRIS, Cat #6461), is diluted in an assay buffer and is added to the plate. In some embodiments, the final concentrations of PARP-1 and fluorescent probe are 20 nM and 3 nM, respectively, in a total volume of 20 μL. In some embodiments, the plate is centrifuged, e.g., at 1000 rpm for 1 minute, and the assay plate is incubated, e.g., for 4 h at RT. In some embodiments, the samples in each well are read using a plate reader, e.g., an Envision instrument using excitation=480 nm, and emission wavelength=FITC FP-P pol 535 nm & FITC FP-S pol 535 nm). In some embodiments, percent inhibition is calculated from mP values using Inhibition (%)=[1−(mPc−mPL)/(mPH−mPL)]×100%, where mPc, mPL, and mPH are the mP values of test compound, Low controls, and High controls, respectively. In some embodiments, binding IC50 values are calculated using XLFit (equation 201: y=A+((B−A)/(1+((x/C)^D))), where A=bottom, B=top, C=IC50, and D=slope) with a floating top and bottom for curves.
Compounds of the present disclosure were tested in a PARP1 fluorescence polarization binding assay at Pharmaron (Beijing, P.R. China). In this biochemical assay, binding of test compound to recombinant human PARP1 reduces the amount of binding of a fluorescent probe, and consequently reduces the detected level of fluorescence polarization. Test compound stock solutions were prepared in DMSO and then serially diluted into 10 concentrations by 3-fold dilution in a 384-well plate using a TECAN EVO200. Alternatively, a single concentration was prepared. 60 nL of each dilution was transferred to the plate using an Echo550 (Labcyte), and then 10 μL 40 nM GST-tagged PARP1 (BPS Bioscience, Cat #80501), diluted in assay buffer (50 mM Tris pH 8.0, 0.001% Triton X-100, 10 mM MgCl2, 150 mM NaCl), was added to the plate. After a centrifugation at 1000 rpm for 1 min, the assay plate was incubated for 30 min at RT. 10 μL 6 nM PARP1-FL (TOCRIS, Cat #6461), diluted using assay buffer, was then added to the plate. The final concentrations of PARP1 and PARP1-FL were 20 nM and 3 nM, respectively, in a total volume of 20 μL. […]

[1] = test system: DLD-1 wild-type colorectal adenocarcinoma cells; assay: Cell viability assay (Cell Titer-Glo, 7 days), DLD-1 wild-type; assay type: cell-based; conditions: Homo sapiens, 168 h, DLD-1 wild-type cells, read-out: DLD-1 wild-type % inh at 10 μM
Source text: (§1) In some embodiments, the biological assay measures the effects that compounds of the present disclosure may have on the viability of cells, e.g., the viability of cancer cells. In some embodiments, DLD-1 wild-type and DLD-1 BRCA2(−/−) colorectal adenocarcinoma cells, an isogenic pair of cell lines differing in the presence and absence, respectively, of both BRCA2 alleles, are used to measure the effect of the disclosed compounds on the viability of cancer cells. In some embodiments, the cells are harvested during the logarithmic growth period, counted, and seeded at a specified count in the wells of a 96- or 384-well cell culture plate. In some embodiments, after seeding, the cells are incubated, e.g., at 37° C., 5% CO2 overnight. In some embodiments, the cells are treated with compounds, e.g., with serially diluted test compounds at 8-11 concentrations within a desired concentration range, e.g., from 1 nM-10 μM, for the generation of dose-response curves. In some embodiments, the plate is further incubated, e.g., for another 3-7 days in a humidified incubator at 37° C. and 5% CO2. In some embodiments, cell viability is assessed by luminescence measurement after addition of Cell Titer-Glo reagent (Promega, Madison, Wis.) according to the manufacturer's instructions. In some embodiments, cell viability IC50 values are calculated using XLFit, equation 201: y=A+((B−A)/(1+((x/C)^D))), where A=bottom, B=top, C=IC50, and D=slope. In some embodiments, the effects of the test compounds on the viability of other cell lines such as MDA-MB-436, MDA-MB-231, SUM149PT, HCC1395, and UWB1.289 are determined in an analogous method.
(§2) Compounds of the present disclosure were tested for their effects on the viability of cancer cells. DLD-1 wild-type and DLD-1 BRCA2(−/−) colorectal adenocarcinoma cells, an isogenic pair of cell lines differing in the presence and absence, respectively, of both BRCA2 alleles, were used. The cells were harvested during the logarithmic growth period, counted, and seeded at 50 cells/well for DLD-1 wild-type and 200 cells/well for DLD-1 BRCA2(−/−) in a 384-well cell culture plate. After seeding, cells were incubated at 37° C., 5% CO2 overnight. Cells were treated with serially diluted test compounds at 10 concentrations (e.g., from 1.5 nM-30 μM) for generation of dose response curves, or at a single concentration. The plate was further incubated for another 7 days in a humidified incubator at 37° C. and 5% CO2. Cell viability was assessed by luminescence measurement after addition of Cell Titer-Glo reagent (Promega, Madison, Wis.) according to the manufacturer's instructions. Cell viability IC50 values were calculated using XLFit, equation 201. y=A+((B−A)/(1+((x/C)^D))), where A=bottom, B=top, C=IC50, and D=slope. IC50 values are shown in Table B and are presented in ranges, in which “+++”<300 nM, 300 nM≤“++”<3000 nM, and “+”≥3000 nM. Values for percent inhibition at 10 μM are also shown in Table B and are presented in ranges, in which “***”≥67%, 33%: “**”≤67%, and “*”<33%. Effects of the test compounds on the viability of other cell lines such as MDA-MB-436, MDA-MB-231, SUM149PT, HCC1395, and UWB1.289 are determined in an analogous method.

[2] = test system: DLD-1 BRCA2(−/−) colorectal adenocarcinoma cells; assay: Cell viability assay (Cell Titer-Glo, 7 days), DLD-1 BRCA2(−/−); assay type: cell-based; conditions: Homo sapiens, 168 h, DLD-1 BRCA2(−/−) cells
Source text: as §1, §2

[3] = percent inhibition at 10 μM, fluorescence polarization, GST-tagged PARP2 20 nM, PARP1-FL probe 3 nM

recombinant human PARP1, sequence (P09874 whole entry): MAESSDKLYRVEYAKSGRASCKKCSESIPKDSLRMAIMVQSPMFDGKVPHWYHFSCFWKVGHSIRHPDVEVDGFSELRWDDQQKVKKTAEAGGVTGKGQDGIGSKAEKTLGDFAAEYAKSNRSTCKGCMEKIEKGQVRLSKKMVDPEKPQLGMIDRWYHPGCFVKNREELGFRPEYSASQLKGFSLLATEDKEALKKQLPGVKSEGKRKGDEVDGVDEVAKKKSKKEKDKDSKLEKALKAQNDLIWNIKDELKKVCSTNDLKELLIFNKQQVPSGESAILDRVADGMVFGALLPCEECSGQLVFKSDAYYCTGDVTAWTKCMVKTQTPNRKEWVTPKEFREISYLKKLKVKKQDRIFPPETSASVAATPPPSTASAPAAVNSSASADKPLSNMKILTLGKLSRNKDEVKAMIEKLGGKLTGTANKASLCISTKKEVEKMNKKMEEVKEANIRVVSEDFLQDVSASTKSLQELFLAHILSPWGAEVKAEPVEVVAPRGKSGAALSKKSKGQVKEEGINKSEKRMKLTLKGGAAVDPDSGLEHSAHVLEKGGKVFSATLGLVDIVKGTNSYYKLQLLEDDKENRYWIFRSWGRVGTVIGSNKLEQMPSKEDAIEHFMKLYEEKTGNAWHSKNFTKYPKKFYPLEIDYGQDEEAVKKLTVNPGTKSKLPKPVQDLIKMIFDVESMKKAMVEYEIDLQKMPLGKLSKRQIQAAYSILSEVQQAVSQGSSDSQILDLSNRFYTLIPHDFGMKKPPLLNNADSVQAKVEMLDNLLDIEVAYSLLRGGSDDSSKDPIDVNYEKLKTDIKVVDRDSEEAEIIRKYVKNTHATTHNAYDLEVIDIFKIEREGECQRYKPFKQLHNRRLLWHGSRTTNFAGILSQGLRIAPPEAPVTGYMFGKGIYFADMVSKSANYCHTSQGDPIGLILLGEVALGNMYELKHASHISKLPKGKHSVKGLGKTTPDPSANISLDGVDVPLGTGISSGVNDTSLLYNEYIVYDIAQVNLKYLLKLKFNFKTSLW
recombinant human PARP2, sequence (Q9UGN5 whole entry): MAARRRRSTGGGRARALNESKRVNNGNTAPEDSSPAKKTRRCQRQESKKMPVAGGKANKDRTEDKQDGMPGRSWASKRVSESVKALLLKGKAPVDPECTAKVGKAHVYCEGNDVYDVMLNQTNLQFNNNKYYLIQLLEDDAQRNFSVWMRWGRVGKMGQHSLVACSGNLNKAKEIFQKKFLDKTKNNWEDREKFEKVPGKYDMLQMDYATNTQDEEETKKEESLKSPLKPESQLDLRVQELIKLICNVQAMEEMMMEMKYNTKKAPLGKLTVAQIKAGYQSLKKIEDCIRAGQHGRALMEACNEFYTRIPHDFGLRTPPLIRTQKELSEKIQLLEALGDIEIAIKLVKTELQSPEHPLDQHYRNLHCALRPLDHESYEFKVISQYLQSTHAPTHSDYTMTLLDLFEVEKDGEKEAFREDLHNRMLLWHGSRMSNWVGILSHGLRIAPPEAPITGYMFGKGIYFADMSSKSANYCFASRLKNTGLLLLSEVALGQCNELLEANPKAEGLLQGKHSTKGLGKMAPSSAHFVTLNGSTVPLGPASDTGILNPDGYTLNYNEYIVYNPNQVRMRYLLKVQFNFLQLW

Row | SMILES | inhibition at 10 µM (recombinant human PARP2; [3]) [%] | pIC50 (recombinant human PARP1) | inhibition at 10 µM [1] [%] | pIC50 [2] | inhibition at 10 µM (recombinant human PARP2) [%]
1 | CNC(=O)c1ccc(N2CCN(Cc3ccnc(NC(=O)NCCF)c3)CC2)c(C)n1 [Compound 261, 5-(4-((2-(3-(2-fluoroethyl)ureido)pyridin-4-yl)methyl)piperazin-1-yl)-N,6-dimethylpicolinamide] | < 33 | > 7.00 | < 33 | > 6.52 | 
2 | CNC(=O)c1ccc(N2CCN(Cc3ccnc(NC(=O)NC(C)C)c3)CC2)c(C)n1 [Compound 259, 5-(4-((2-(3-isopropylureido)pyridin-4-yl)methyl)piperazin-1-yl)-N,6-dimethylpicolinamide] | < 33 | > 7.00 | < 33 | 5.52 to 6.52 | 
3 | CCNC(=O)Nc1cc(CN2CCN(c3ccc(-n4cccn4)nc3C)CC2)ccn1 [Compound 24, 1-ethyl-3-(4-((4-(2-methyl-6-(1H-pyrazol-1-yl)pyridin-3-yl)piperazin-1-yl)methyl)pyridin-2-yl)urea] | < 33 | > 7.00 | < 33 | > 6.52 | 
4 | [2H]C([2H])([2H])c1nc(C(=O)NC)ccc1N1CCN(Cc2ccnc(NC(=O)NCC)c2)CC1 [Compound 274, 5-(4-((2-(3-ethylureido)pyridin-4-yl)methyl)piperazin-1-yl)-N-methyl-6-(methyl-d3) picolinamide hemiformate] | < 33 | > 7.00 | < 33 | > 6.52 | 
5 | CCNC(=O)Nc1nccc(CN2CCN(c3ccc(C#N)cn3)CC2)c1F [Compound 268, 1-(4-((4-(5-cyanopyridin-2-yl)piperazin-1-yl)methyl)-3-fluoropyridin-2-yl)-3-ethylurea] | < 33 | > 7.00 | < 33 | > 6.52 | 
6 | CCNC(=O)Nc1cccc(CN2CCN(c3ccc(C(=O)NC)nc3C)CC2)c1 [Compound 202, 5-(4-(3-(3-ethylureido)benzyl)piperazin-1-yl)-N,6-dimethyl picolinamide formate] | < 33 | 5.52 to 7.00 | < 33 | ≤ 5.52 | 
7 | CCNC(=O)Nc1cc(CN2CCN(c3ccc(C#N)cn3)CC2)ccn1 [Compound 263, 1-(4-((4-(5-cyanopyridin-2-yl)piperazin-1-yl)methyl)pyridin-2-yl)-3-ethylurea] | < 33 | > 7.00 | < 33 | > 6.52 | 
8 | CCNC(=O)Nc1cc(CN2CCN(c3ccc(C#N)cn3)CC2)ncn1 [Compound 275, 1-(6-((4-(5-cyanopyridin-2-yl)piperazin-1-yl)methyl)pyrimidin-4-yl)-3-ethylurea] | < 33 | > 7.00 | < 33 | > 6.52 | 
9 | CCNC(=O)Nc1cc(CN2CCN(c3ccc(C(=O)NC)nc3C)CC2=O)ccn1 [Compound 29, 5-(4-((2-(3-ethylureido)pyridin-4-yl)methyl)-3-oxopiperazin-1-yl)-N,6-dimethylpicolinamide] | < 33 | 5.52 to 7.00 | < 33 | ≤ 5.52 | 
10 | CCNC(=O)Nc1cc(CN2CCN(c3ccc(C(=O)NC)nc3C)CC2)ncn1 [Compound 230, 5-(4-((6-(3-ethylureido)pyrimidin-4-yl)methyl)piperazin-1-yl)-N,6-dimethylpicolinamide formate] |  | > 7.00 | < 33 | > 6.52 | < 33
11 | CCNC(=O)Nc1cc(CN2CCN(c3ccc(C(=O)NC)nc3F)CC2)ncn1 [Compound 229, 5-(4-((6-(3-ethylureido)pyrimidin-4-yl)methyl)piperazin-1-yl)-6-fluoro-N-methylpicolinamide formate] |  | > 7.00 | < 33 | > 6.52 | < 33
12 | CCNC(=O)Nc1cc(CN2CCN(c3ccc(C(=O)NC)nc3C)CC2)ccn1 [Compound 13, 5-(4-((2-(3-ethylureido)pyridin-4-yl)methyl)piperazin-1-yl)-N,6-dimethylpicolinamide formate] |  | > 7.00 | < 33 | > 6.52 | < 33
13 | CNC(=O)c1ccc(N2CCN(Cc3ccnc(NC(=O)NC4CC4)c3)CC2)c(C)n1 [Compound 46, 5-(4-((2-(3-cyclopropylureido)pyridin-4-yl)methyl)piperazin-1-yl)-N,6-dimethylpicolinamide] | < 33 | > 7.00 | < 33 | > 6.52 | 
